Test results published in patent US9408853B2, “Iridium/rhodium anti-cancer compounds” (University of Warwick, priority 2010, dated 2016).

Legend:
9-ethylguanine (9-EtG) = assay: Interactions with nucleobases: 9-EtG adduct formation (1H NMR); format: binding; settings: 1 mM, 1 mol equiv 9-EtG (ZL33A: 2 mol equiv), D2O, 310 K
Protocol: (§1) Interactions with Nucleobases. The reaction of ZL01, ZL03, ZL04, ZL07, ZL25, ZL33, ZL37, ZL38, ZL43 and ZL54 and ZL33A with nucleobases typically involved addition of a solution containing 1-2 mol equiv of nucleobase in D2O, to an equilibrium solution of ZL01, ZL03, ZL04, ZL07, ZL25, ZL33, ZL37, ZL38, ZL43, ZL54 and ZL33A in a solution of 5% MeOD-d4/95% D2O (v/v). ^1H NMR spectra of these solutions were recorded at 310 K after various time intervals.
(§2) Since DNA is a potential target site for transition metal anticancer complexes,^18 nucleobase binding reactions of compounds ZL01, ZL03, ZL04, ZL07, ZL25, ZL33, ZL33A, ZL37, ZL38, ZL43 and ZL54 with nucleobase models 9-ethylguanine (9-EtG) and 9-ethyladenine (9-EtA), were investigated. Solutions of ZL01, ZL03, ZL04, ZL07, ZL25, ZL33, ZL37, ZL38, ZL43 and ZL54 (1 mM) (containing an equilibrium mixture of these complexes and their respective aqua adducts) with 1 mol equivalent of 9-EtG or 9-EtA in D2O were prepared, and ^1H NMR spectra were recorded at different time intervals.
Interactions with Nucleobases. Since DNA is a potential target site for transition metal anticancer complexes,^23 the binding of 9-ethylguanine (9-EtG) to complexes ZL47, ZL49, ZL69, ZL74 and ZL107 was studied.

[1] = system: human ovarian A2780 cancer cells; assay: Cancer cell cytotoxicity, SRB assay; format: cell-based; settings: 24 h exposure, 72 h recovery, SRB; read-out: A2780 IC50
Protocol: Cancer Cell Cytotoxicity. After plating, human ovarian A2780 cancer cells were treated with Ir^III complexes on day 3 at concentrations ranging from 0.5 μM to 100 μM. Solutions of the Ir^III complexes were made up in 0.125% DMSO to assist dissolution. Stock solutions of the IrIII complexes were firstly prepared in DMSO to assist dissolution, and then diluted into 0.9% saline and medium. After plating 5000 A2780 cells per well on day 1, IrIII complexes were added to the cancer cells on day 3 at concentrations ranging from 0.05 μM to 100 μM. Cells were exposed to the complexes for 24 h, washed, supplied with fresh medium, allowed to grow for three doubling times (72 h), and then the protein content measured (proportional to cell survival) using the sulforhodamine B (SRB) assay.^15 […]. The standard errors are based on two independent experiments of three replicates each.

9-ethyladenine (9-EtA) = assay: Interactions with nucleobases: 9-EtA adduct formation (1H NMR); format: binding; settings: 1 mM, 1 mol equiv 9-EtA, D2O, 310 K
Protocol: as §1, §2

SW480 cancer cell line = assay: Cytotoxicity, MTT assay (Brabec group); format: cell-based; settings: for IC50: 72 h incubation, MTT
Protocol: (§3) The cytotoxicity test of ZL07, ZL33, ZL38 and ZL54 against A2780, SW480, A549 and CH1 cell lines was performed by Viktor Brabec group (Institute of Biophysics, Academy of Sciences of the Czech Republic). After plating, the cells were treated with ZL07, ZL33, ZL38 and ZL54. After 72h of incubation 10 μl of MTT (2.5 mg/ml; CALBIOCHEM) was added to each well and incubated for 4 h in culture conditions. At the end of the incubation period the medium was removed and the formazan product was dissolved in 100 μl DMSO. The cell viability was evaluated by measurement of the absorbance at 570 nm, using an Absorbance Reader SUNRICE TECAN SCHOELLER. […] All experiments were made in quadruplicate.

A549 cancer cell line = assay: Cytotoxicity, MTT assay (Brabec group); format: cell-based; settings: for IC50: 72 h incubation, MTT
Protocol: as §3

CH1 cancer cell line = assay: Cytotoxicity, MTT assay (Brabec group); format: cell-based; settings: for IC50: 72 h incubation, MTT
Protocol: as §3

[2] = Kinetics of hydrolysis followed by 1H NMR; format: physicochemical; settings: for rate of hydrolysis (in words): 1H NMR, even at 278K; for k (hydrolysis): 0.2 mM, 5% MeOD-d4/95% D2O, pH* 3; for Ea (Arrhenius activation energy of hydrolysis): from Arrhenius plot; for ΔH^‡ (activation enthalpy of hydrolysis) / ΔS^‡ (activation entropy of hydrolysis): from Eyring plot
Protocol: Kinetics for Hydrolysis. Although complexes ZL01-ZL04, ZL07, ZL38 and ZL43 hydrolyzed too rapidly to monitor by ^1H NMR, The kinetics of hydrolysis for complexes ZL25, ZL33, ZL37 and ZL54 were followed by ^1H NMR at different temperatures. For this, solutions of the complexes with a final concentration of 0.2 mM in 5% MeOD-d4/95% D2O (v/v) were prepared by dissolution of the complexes in MeOD-d4 followed by rapid dilution using D2O with a pH* of about 3 (acidified with HClO4), so that the aqua ligand was not deprotonated. ^1H NMR spectra were taken after various time intervals. The rates of hydrolysis were determined by fitting plots of concentrations (determined from ^1H NMR peak integrals) versus time to a pseudo first-order equation using ORIGIN version 7.0. The Arrhenius activation energy (Ea), activation enthalpies (ΔH^¢), and activation entropy (ΔS^‡) for compounds ZL25, ZL33, ZL37 and ZL54 were determined from the slopes of the Arrhenius and intercepts of Eyring plots.
The rates of hydrolysis of compounds ZL01-ZL04, ZL07, ZL25, ZL33, ZL37, ZL38, ZL43 and ZL54 in a 5% MeOD-d4/95% D2O were monitored by ^1H NMR at different temperature from 278 to 298 K by the observation of new peaks over time due to aqua adduct formation. Five percent MeOD was used to improve solubility, and acidic conditions (D2O, pH* 3) were used to prevent the deprotonation of the aqua complex as a secondary reaction. […] The percentage of aqua peak formation for ZL25, ZL33, ZL37 and ZL54 was plotted against time and was fitted to pseudofirst order kinetics (FIG. 3), and their halflife times were calculated (Table 1). The Arrhenius activation energy (Ea), activation enthalpy (ΔH^¢), and activation entropy (ΔS^‡) of compound ZL25, ZL33, ZL37 and ZL54 are listed in Table 4. The large negative ΔS^‡value for compound ZL54 is notable. The extent of hydrolysis at equilibrium is medium for all compounds, ranged from 30% to 60%.

[3] = system: ca. 60 cell lines within nine tumour type subpanels; format: cell-based
From the text: Six complexes, [(η^5-C5Me4C6H4C6H5)Ir(bpy)Cl]PF6 (ZL25, bpy=2,2′-bipyridine), [(η^5-C5Me4C6H5)Ir(phen)Cl]PF6 (ZL33, phen=1,10-phenanthroline), [(η^5-C5Me4C6H4C6H5) Ir(pico)Cl] (ZL43, pico=picolinate), [(η^5-C5Me5)Ir(2-phpy)Cl] (ZL47), [(η^5-C5Me4C6H4C6H5)Ir(2-phPY)(D2O)Cl] (ZL49) and [(η^5-C5Me4C6H4C6H5) Ir(phen)Cl]PF6 (ZL54), were selected by Developmental Therapeutics Program of National Cancer Institute (NCI, U.S.A.) for in vitro screening test, in which 5 complexes except ZL43 are selected for further testing. The five complexes were tested on ca. 60 cell lines within nine tumour type subpanels at five concentrations ranging from 0.01 to 100 μM.

[4] = highest test concentration 130 μM

Cc1c(C)c(C)[c-](C)c1C.[Cl-].[Cl][Ir]1[n+]2ccccc2-c2cccc[n+]21 [ZL04, [(η^5-C5Me5)Ir(bipy)Cl]Cl]
Reaction with 9-EtG, extent of adduct formation (9-ethylguanine (9-EtG); 10 min): 28.2%
IC50 [1]: > 100 µM
Reaction with 9-EtA, extent of adduct formation (9-ethyladenine (9-EtA); 10 min): 0%
Reaction with 9-EtA, extent of adduct formation (9-ethyladenine (9-EtA); 24 h): 0%

Cc1c(C)c(-c2ccccc2)[c-](C)c1C.O=C([O-])c1ccccn1.[Cl-].[Ir+3] (centres unmarked) [ZL38, [(η^5-C5Me4C6H5)Ir(η^2-C5H4N-2-CO2)Cl]]
Reaction with 9-EtG, extent of adduct formation (9-ethylguanine (9-EtG); 10 min): 100%
Reaction with 9-EtG, extent of adduct formation (9-ethylguanine (9-EtG); 24 h): 100%
IC50 (SW480 cancer cell line): > 130 µM
cytotoxicity towards SW480 (in words) (SW480 cancer cell line; [4]): nontoxic
IC50 (A549 cancer cell line): > 130 µM
cytotoxicity towards A549 (in words) (A549 cancer cell line; [4]): nontoxic
IC50 (CH1 cancer cell line): > 130 µM
cytotoxicity towards CH1 (in words) (CH1 cancer cell line; [4]): nontoxic
IC50 [1]: > 100 µM
Reaction with 9-EtA, extent of adduct formation (9-ethyladenine (9-EtA); 10 min): 76.0%
Reaction with 9-EtA, extent of adduct formation (9-ethyladenine (9-EtA); 24 h): 76.0%
rate of hydrolysis (in words) [2]: too rapid to be observed

N.N.[Cl][Pt][Cl] [Cisplatin, reference compound]
IC50 (SW480 cancer cell line): 9.24 ± 1.1 µM
IC50 (A549 cancer cell line): 5.9 ± 1.9 µM
IC50 (CH1 cancer cell line): 0.59 ± 0.1 µM
IC50 [1]: 1.2 µM

Cc1c(C)c(C)[c-](C)c1C.O=C([O-])c1ccccn1.[Cl-].[Ir+3] [ZL03, [(η^5-C5Me5)Ir(η^2—C5H4N-2-CO2)Cl]]
Reaction with 9-EtG, extent of adduct formation (9-ethylguanine (9-EtG); 10 min): 100%
Reaction with 9-EtG, extent of adduct formation (9-ethylguanine (9-EtG); 24 h): 100%
IC50 [1]: > 100 µM
Reaction with 9-EtA, extent of adduct formation (9-ethyladenine (9-EtA); 10 min): 80.8%
Reaction with 9-EtA, extent of adduct formation (9-ethyladenine (9-EtA); 24 h): 80.7%

Cc1c(C)c(-c2ccc(-c3ccccc3)cc2)[c-](C)c1C.F[P-](F)(F)(F)(F)F.[Cl-].[Ir+3].c1ccc(-c2ccccn2)nc1 (centres unmarked) [ZL25, [(η^5-C5Me4C6H4C6H5)Ir(bipy)Cl]PF6]
Reaction with 9-EtG, extent of adduct formation (9-ethylguanine (9-EtG); 10 min): 24.2%
IC50 [1]: 0.57 µM
Reaction with 9-EtA, extent of adduct formation (9-ethyladenine (9-EtA); 10 min): 0%
Reaction with 9-EtA, extent of adduct formation (9-ethyladenine (9-EtA); 24 h): 0%
CC50 [3]: 67.6 µM
Mean graph midpoint (MID) TGI ([3]; ca. 60 cell lines, 0.01 to 100 μM): 19.1 µM
GI50 ([3]; ca. 60 cell lines, 0.01 to 100 μM, read-out: Mean graph midpoint (MID) GI50): 4.1 µM
selectivity among tumour type subpanels (in words) ([3]; mean graphs): selectivity with higher activity not only towards leukemia, CNS cancer, melanoma, and prostate cancer, but also against colon cancer and breast cancer
k (hydrolysis) ([2]; 278 K): 0.0249 min⁻¹
k (hydrolysis) ([2]; 283 K): 0.0405 min⁻¹
k (hydrolysis) ([2]; 293 K): 0.0986 min⁻¹
Ea (Arrhenius activation energy of hydrolysis) [2]: 14.4 kcal/mol
ΔH^‡ (activation enthalpy of hydrolysis) [2]: 13.9 kcal/mol
ΔS^‡ (activation entropy of hydrolysis) [2]: −66.02 J K^−1mol^−1

[(η^5-C5Me4C6H5)Ir(phen)(H2O)]^2+ [ZL33A]
Reaction with 9-EtG, extent of adduct formation (9-ethylguanine (9-EtG); 10 min): 65%
Reaction with 9-EtG, extent of adduct formation (9-ethylguanine (9-EtG); 24 h): 73%
IC50 [1]: 6.7 µM
Reaction with 9-EtA, extent of adduct formation (9-ethyladenine (9-EtA); 10 min): 0%
Reaction with 9-EtA, extent of adduct formation (9-ethyladenine (9-EtA); 24 h): 0%

Cc1c(C)c(-c2ccccc2)[c-](C)c1C.F[P-](F)(F)(F)(F)F.[Cl-].[Ir+3].c1ccc(-c2ccccn2)nc1 (centres unmarked) [ZL37, [(η^5-C5Me4C6H5)Ir(bipy)Cl]PF6]
Reaction with 9-EtG, extent of adduct formation (9-ethylguanine (9-EtG); 10 min): 18.6%
IC50 [1]: 15.9 µM
Reaction with 9-EtA, extent of adduct formation (9-ethyladenine (9-EtA); 10 min): 0%
Reaction with 9-EtA, extent of adduct formation (9-ethyladenine (9-EtA); 24 h): 0%
k (hydrolysis) ([2]; 278 K): 0.0341 min⁻¹
k (hydrolysis) ([2]; 283 K): 0.0652 min⁻¹
k (hydrolysis) ([2]; 288 K): 0.1229 min⁻¹
Ea (Arrhenius activation energy of hydrolysis) [2]: 19.7 kcal/mol
ΔH^‡ (activation enthalpy of hydrolysis) [2]: 19.1 kcal/mol
ΔS^‡ (activation entropy of hydrolysis) [2]: 14.7 J K^−1mol^−1

Cc1c(C)c(C)[c-](C)c1C.F[P-](F)(F)(F)(F)F.NCCN.[Cl-].[Ir+3] [ZL01, [(η^5-C5Me5)IrCl(H2NCH2CH2NH2—N,N)]PF6]
Reaction with 9-EtG, extent of adduct formation (9-ethylguanine (9-EtG); 10 min): 100%
Reaction with 9-EtG, extent of adduct formation (9-ethylguanine (9-EtG); 24 h): 100%
IC50 [1]: > 100 µM
Reaction with 9-EtA, extent of adduct formation (9-ethyladenine (9-EtA); 10 min): 0%
Reaction with 9-EtA, extent of adduct formation (9-ethyladenine (9-EtA); 24 h): 0%

Cc1c(C)c(-c2ccc(-c3ccccc3)cc2)[c-](C)c1C.O=C([O-])c1ccccn1.[Cl-].[Ir+3] (centres unmarked) [ZL43, [(η^5-C5Me4C6H4C6H5)Ir(η^2—C5H4N-2-CO2)Cl]]
Reaction with 9-EtG, extent of adduct formation (9-ethylguanine (9-EtG); 10 min): 100%
Reaction with 9-EtG, extent of adduct formation (9-ethylguanine (9-EtG); 24 h): 100%
IC50 [1]: 16.3 µM
Reaction with 9-EtA, extent of adduct formation (9-ethyladenine (9-EtA); 10 min): 71%
Reaction with 9-EtA, extent of adduct formation (9-ethyladenine (9-EtA); 24 h): 71%
rate of hydrolysis (in words) [2]: too rapid to be observed
